Test results reported in patent publication US20230390315A1, “COMPOSITIONS AND METHODS FOR TREATING ISCHEMIC CONDITIONS” (The Regents of the University of California, priority 2020, published 2023).

Legend:
[1] = system: HUVEC; experiment: HUVEC scratch assay; type: cell-based, human; conditions: 40 uM ManN in combination with 50 ng/ml VEGF
Experimental: BCECs (passage 6-10) and HUVEC (passage 6-8) were used in this assay. Cells were grown until about 80% confluency in 6-well plates, washed twice with PBS and then starved in serum-free DMEM (low Glucose, Hyclone) for 5 hrs before making a “scratch” using 1 ml tip. Cell monolayers were briefly washed once with serum-free media, followed by various treatments in media containing 1% FBS. 48 hrs later, the assay was stopped by adding 2 ml 4% paraformaldehyde. 20 min later, fixed cells were stained with 1 ml Crystal Violet (Sigma). Plates were washed gently under the running tap water and air-dried before taking pictures. Images were acquired by ZEISS Discovery V8 SteREO microscopy equipped with PixeLINK Megapixel FireWire camera. Quantification of wound closure was done using AxioVision LE Rel.4.4 software. Six images were taken for each sample and six measurements (in pixel) were made on each image using AxioVision LE Rel.4.4 software.

[2] = Cellular uptake of ManN in BCECs; type: in vitro ADME, bovine
[3] = system: human retinal microvascular EC (hRMECs); experiment: hRMEC proliferation assay; type: cell-based
Experimental: Proliferation assays with BCECs and BRECs were performed. Log-phase growing BCECs or BRECs (passage <10) were trypsinized, re-suspended and seeded in 96-well plates (no coating) in low-glucose DMEM supplemented with 10% bovine calf serum, 2 mM glutamine, and antibiotics (growth medium), at a density of 1200-1500 cells per well in 200 μl volume. All reagents were added at the indicated final concentrations. After 3-6 days, cells were incubated with AlamarBlue for 4 hrs. Fluorescence was measured at 530 nm excitation wavelength and 590 nm emission wavelength. The experiments were repeated at least three times. To create a hypoxic condition, cells were placed in a hypoxia incubator with a mixture of gas consisting of 1% 02, 5% CO2 and 94% Nz. On each 96-well plate, untreated and VEGF-treated (10/ng/ml) wells were included to monitor plate-to-plate variations. 20% methanol or 0.05% DMSO served as negative controls. 0.05% DMSO served as negative controls when Cas was tested in these cells. Human RMVECs and human adult DMVECs were split into Gelatin-coated 96 wells (2000 cells per well) in low glucose DMEM containing 10% FBS. 1200 cells/well was set up for proliferation assay in low glucose media containing FBS. Data was collected at day 4 or 5. HUVEC (p7-10) were grown on gelatin-coated plate until it reached 70-80% confluency.

[4] = system: α-glucosidase; experiment: α-glucosidase activity assay; type: biochemical, Saccharomyces cerevisiae; conditions: up to 2 mM
Experimental: (§1) a-mannosidase activity was measured using substrate p-nitrophenyl α-mannopyranoside (1 mM). Enzyme from Jack Bean ([…]) (final concentration of 0.077 U) was incubated at 37° C. in a final volume of 50 μl of 50 mM potassium phosphate buffer, pH 7.5. α-glucosidase was assayed with substrate p-nitrophenyl α-glucoside (7 mM). Enzyme from Saccharomyces cerevisiae-type 1 (Sigma, G5003) (final concentration of 0.1 U) was incubated at 37° C. in a final volume of 50 μl of PBS, pH 7.5. β-Glucosidase was assayed with substrate 4-nitrophenyl β-D-glucopyranoside (Roche). Enzyme from almond (Sigma, G0395) (final concentration of 0.002 U) was incubated at 37° C. in a final volume of 50 μl of PBS, pH 7.5 containing 1% SDS. The incubation was stopped by addition of an equal volume of acid-based stop solution (R&D systems, 895032). Enzymatic activity was measured at 405 nm. α-glucosidase from Saccharomyces cerevisiae type I ([…]) with p-nitrophenyl α-D-glucopyranoside (Sigma, N1377) as the substrate.

[5] = system: β-Glucosidase; experiment: β-glucosidase activity assay; type: biochemical, almond; conditions: up to 2 mM
Experimental: as §1

[6] = system: BCEC; experiment: BCEC transwell migration assay; type: cell-based, bovine; conditions: ManN at 40 uM
Experimental: HUVECs (passage 6-8) were cultured and serum-starved as described in “Western Blots”. Ten thousand cells in 150 μl of EBM-2 medium were then added to the upper chamber of 8 μm pore size cell culture inserts (Falcon) coated with 0.1% gelatin. The lower compartment was filled with 600 μl EBM-2 medium containing various agents. The plates were incubated at 37° C. to allow migration. After 4 hrs, cells were fixed with 4% PFA for 20 min and then stained with crystal violet (Sigma-Aldrich) for 20 min at RT. Migrated cells on the bottom side of the insert membrane were quantified by counting whole area of the insert at 40× magnification. The experiments were carried out in triplicate and repeated three times. BCEC migration was set up similarly, except that wells were coated with FN, cells were suspended in 1% serum media and migration time was 18-24 hrs.

[7] = system: ERK and AKT; experiment: Western blot of ERK and AKT activation in HUVEC and hDMVECs; type: cell-based, human; conditions: 40 uM; HUVEC and hDMVECs
Experimental: Cells were allowed to reach 80% confluency in 12-well plates. […] At various time points, plates were taken out of the incubator and kept on ice. Cell monolayers were first washed once with ice-cold PBS before lysis with 250 μl of Pierce RIPA buffer (ThermoFisher Scientific, Rockford, IL) or use 50 mM Tris-HCl (pH 7.6), 150 mM NaCl, 10% Glycerol, 1% NP-40 containing protease/Phosphatase inhibitor cocktail (100×) (Cell signaling, #5872). Lysates were collected and mixed with 4×Bolt LDS Sample Buffer (Novex, Carlsbad, CA) in the presence of Halt protease inhibitors and phosphatase inhibitor cocktail (ThermoFisher scientific, #NP0007). The samples were subjected to SDS-PAGE (Bolt 4-12% Bis-Tris Plus, Invitrogen) using Bolt MES SDS running buffer or NuPAGE 3-8% Tris-Acetate gel using Tris-Acetate SDS running buffer (Novex). HUVECs (passage 6-8) were plated in EBM-2 basal medium (Lonza) with 0.2% FBS. […] Equal amounts of protein lysates were analyzed by SDS-PAGE and blotted with the indicated antibodies. Proteins were transferred using Tris-Glycine buffer with 20% Methanol (Proteonomics grade) (Apex BioResearch Products). Membranes were first incubated with 5% milk in TBST, pH 7.6 (TEKnova, Hollister, CA), followed by blotting with primary and secondary antibodies. […]

SMILES	HUVEC wound closure [1]	cell entry and accumulation [2]	ManN detected in 1 mg cell lysate ([2]; 400 uM ManN for 2 hours) [nmol]	additivity with VEGF on proliferation [3]	toxicity ([3]; at 5 mM)	effect on α-glucosidase [4]	effect on β-glucosidase [5]	additivity with VEGF in promoting BCEC migration [6]	activation of ERK and AKT [7]
N[C@H](C=O)[C@@H](O)[C@H](O)[C@H](O)CO [ManN, 2-Amino-2-deoxy-D-mannose]	stimulation of migration and wound closure	entered and accumulated inside the cells in a concentration-dependent manner	0.66	dose-dependent additivity with VEGF	minimal toxicity	No effect	No effect	significant additivity with VEGF	
O=C1N[C@@H]2[C@@H](O)[C@@H](O)[C@H](O)[C@@H](CO)N2C1=O [Kif, Kifunensine, reference compound]									significantly activate
